Reference: PubChem BioAssay (NCI)
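How tested: cells in 96-well plates exposed to compound for 48 hours at five concentrations. GI50: concentration for 50% inhibition of growth. Definition used: TGI = concentration required for complete inhibition of growth.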

Experiments:
Test in all cases: DTP human tumour cell line panel, 48 h
OVCAR-8 ovarian = tested on: OVCAR-8 ovarian
RXF 393 renal = tested on: RXF 393 renal
OVCAR-3 ovarian = tested on: OVCAR-3 ovarian
SK-MEL-28 melanoma = tested on: SK-MEL-28 melanoma
KM12 colon = tested on: KM12 colon
NCI-H522 lung = tested on: NCI-H522 lung
MALME-3M melanoma = tested on: MALME-3M melanoma
SK-OV-3 ovarian = tested on: SK-OV-3 ovarian
CCRF-CEM leukemia = tested on: CCRF-CEM leukemia
MOLT-4 leukemia = tested on: MOLT-4 leukemia
HOP-92 NSCLC = tested on: HOP-92 NSCLC
TK-10 renal = tested on: TK-10 renal
HCT-15 colon = tested on: HCT-15 colon
HL-60(TB) leukemia = tested on: HL-60(TB) leukemia
SR leukemia = tested on: SR leukemia
SK-MEL-2 melanoma = tested on: SK-MEL-2 melanoma
UACC-62 melanoma = tested on: UACC-62 melanoma
M14 melanoma = tested on: M14 melanoma
MCF7 breast = tested on: MCF7 breast
HS 578T breast = tested on: HS 578T breast
DU-145 prostate = tested on: DU-145 prostate
HOP-62 NSCLC = tested on: HOP-62 NSCLC
PC-3 prostate = tested on: PC-3 prostate
HT29 colon = tested on: HT29 colon
SF-295 CNS = tested on: SF-295 CNS
K-562 leukemia = tested on: K-562 leukemia
ACHN renal = tested on: ACHN renal
NCI-H460 lung = tested on: NCI-H460 lung
RPMI-8226 leukemia = tested on: RPMI-8226 leukemia
A498 renal = tested on: A498 renal
MDA-MB-231 breast = tested on: MDA-MB-231 breast
MDA-MB-435 = tested on: MDA-MB-435
COLO 205 colon = tested on: COLO 205 colon
OVCAR-5 ovarian = tested on: OVCAR-5 ovarian
SN12C renal = tested on: SN12C renal
IGROV1 ovarian = tested on: IGROV1 ovarian
BT-549 breast = tested on: BT-549 breast
CAKI-1 renal = tested on: CAKI-1 renal
SF-539 CNS = tested on: SF-539 CNS
LOX IMVI melanoma = tested on: LOX IMVI melanoma
786-0 renal = tested on: 786-0 renal
SF-268 CNS = tested on: SF-268 CNS
HCC-2998 colon = tested on: HCC-2998 colon
EKVX NSCLC = tested on: EKVX NSCLC
U251 CNS = tested on: U251 CNS
NCI-H23 lung = tested on: NCI-H23 lung
SW-620 colon = tested on: SW-620 colon
SNB-19 CNS = tested on: SNB-19 CNS
A549 NSCLC = tested on: A549 NSCLC
NCI-H226 lung = tested on: NCI-H226 lung
UACC-257 melanoma = tested on: UACC-257 melanoma
OVCAR-4 ovarian = tested on: OVCAR-4 ovarian
T-47D breast = tested on: T-47D breast
NCI/ADR-RES ovarian = tested on: NCI/ADR-RES ovarian
SNB-75 CNS = tested on: SNB-75 CNS
SK-MEL-5 melanoma = tested on: SK-MEL-5 melanoma

CCN1C(=O)N(CC)C2C1NN=c1s/c(=C3\C(=O)N(C4CCCC4)c4ccccc43)c(=O)n12 (stereo not drawn)
GI50 (OVCAR-8 ovarian): 2.12 µM
TGI (OVCAR-8 ovarian): > 100 µM
GI50 (RXF 393 renal): 0.603 µM
TGI (RXF 393 renal): 3.2 µM
GI50 (OVCAR-3 ovarian): 0.516 µM
TGI (OVCAR-3 ovarian): 2.09 µM
GI50 (SK-MEL-28 melanoma): 1.18 µM
TGI (SK-MEL-28 melanoma): > 100 µM
GI50 (KM12 colon): 0.689 µM
TGI (KM12 colon): > 100 µM
GI50 (NCI-H522 lung): 0.573 µM
TGI (NCI-H522 lung): 5.57 µM
GI50 (MALME-3M melanoma): 1.26 µM
TGI (MALME-3M melanoma): 8.74 µM
GI50 (SK-OV-3 ovarian): 2.45 µM
TGI (SK-OV-3 ovarian): 27.8 µM
GI50 (CCRF-CEM leukemia): 2.02 µM
TGI (CCRF-CEM leukemia): 57.5 µM
GI50 (MOLT-4 leukemia): 3.42 µM
TGI (MOLT-4 leukemia): > 100 µM
GI50 (HOP-92 NSCLC): 1.21 µM
TGI (HOP-92 NSCLC): 6.4 µM
GI50 (TK-10 renal): 2.78 µM
TGI (TK-10 renal): 9.89 µM
GI50 (HCT-15 colon): 0.479 µM
TGI (HCT-15 colon): > 100 µM
GI50 (HL-60(TB) leukemia): 1.76 µM
TGI (HL-60(TB) leukemia): 4.94 µM
GI50 (SR leukemia): 0.392 µM
TGI (SR leukemia): > 100 µM
GI50 (SK-MEL-2 melanoma): 2.76 µM
TGI (SK-MEL-2 melanoma): 17.6 µM
GI50 (UACC-62 melanoma): 0.465 µM
TGI (UACC-62 melanoma): 36 µM
GI50 (M14 melanoma): 0.913 µM
TGI (M14 melanoma): 6.73 µM
GI50 (MCF7 breast): 0.382 µM
TGI (MCF7 breast): > 100 µM
GI50 (HS 578T breast): 1.01 µM
TGI (HS 578T breast): 8.77 µM
GI50 (DU-145 prostate): 2.25 µM
TGI (DU-145 prostate): 6.59 µM
GI50 (HOP-62 NSCLC): 1.54 µM
TGI (HOP-62 NSCLC): 14.4 µM
GI50 (PC-3 prostate): 1.15 µM
TGI (PC-3 prostate): > 100 µM
GI50 (HT29 colon): 0.695 µM
TGI (HT29 colon): > 100 µM
GI50 (SF-295 CNS): 1.6 µM
TGI (SF-295 CNS): 14.4 µM
GI50 (K-562 leukemia): 0.37 µM
TGI (K-562 leukemia): > 100 µM
GI50 (ACHN renal): 1.27 µM
TGI (ACHN renal): > 100 µM
GI50 (NCI-H460 lung): 0.906 µM
TGI (NCI-H460 lung): > 100 µM
GI50 (RPMI-8226 leukemia): 1.91 µM
TGI (RPMI-8226 leukemia): 7.31 µM
GI50 (A498 renal): 0.198 µM
TGI (A498 renal): 0.854 µM
GI50 (MDA-MB-231 breast): 2.2 µM
TGI (MDA-MB-231 breast): 20.6 µM
GI50 (MDA-MB-435): 0.242 µM
TGI (MDA-MB-435): 0.661 µM
GI50 (COLO 205 colon): 1.89 µM
TGI (COLO 205 colon): 12.2 µM
GI50 (OVCAR-5 ovarian): 3.75 µM
TGI (OVCAR-5 ovarian): > 100 µM
GI50 (SN12C renal): 2.76 µM
TGI (SN12C renal): > 100 µM
GI50 (IGROV1 ovarian): 0.773 µM
TGI (IGROV1 ovarian): > 100 µM
GI50 (BT-549 breast): 2.03 µM
TGI (BT-549 breast): 7.84 µM
GI50 (CAKI-1 renal): 0.519 µM
TGI (CAKI-1 renal): > 100 µM
GI50 (SF-539 CNS): 0.484 µM
TGI (SF-539 CNS): 2.4 µM
GI50 (LOX IMVI melanoma): 1.63 µM
TGI (LOX IMVI melanoma): > 100 µM
GI50 (786-0 renal): 1.71 µM
TGI (786-0 renal): 4.86 µM
GI50 (SF-268 CNS): 2.38 µM
TGI (SF-268 CNS): 27.6 µM
GI50 (HCC-2998 colon): 1.65 µM
TGI (HCC-2998 colon): 5.19 µM
GI50 (EKVX NSCLC): 3.36 µM
TGI (EKVX NSCLC): > 100 µM
GI50 (U251 CNS): 1.57 µM
TGI (U251 CNS): 15.6 µM
GI50 (NCI-H23 lung): 2.49 µM
TGI (NCI-H23 lung): 13.5 µM
GI50 (SW-620 colon): 0.551 µM
TGI (SW-620 colon): > 100 µM
GI50 (SNB-19 CNS): 3.47 µM
TGI (SNB-19 CNS): 40.5 µM
GI50 (A549 NSCLC): 1.55 µM
TGI (A549 NSCLC): > 100 µM
GI50 (NCI-H226 lung): 1.47 µM
TGI (NCI-H226 lung): 5.54 µM

c1cc2nnc1SCCSCCSCCSc1ccc(nn1)SCCSCCSCCS2
TGI (OVCAR-8 ovarian): > 100 µM
TGI (OVCAR-3 ovarian): > 100 µM
TGI (NCI-H522 lung): > 100 µM
TGI (UACC-257 melanoma): > 100 µM
TGI (MALME-3M melanoma): > 100 µM
TGI (SK-OV-3 ovarian): > 100 µM
TGI (HOP-92 NSCLC): > 100 µM
TGI (OVCAR-4 ovarian): > 100 µM
TGI (HCT-15 colon): > 100 µM
TGI (SR leukemia): > 100 µM
TGI (SK-MEL-2 melanoma): > 100 µM
TGI (UACC-62 melanoma): > 100 µM
TGI (M14 melanoma): > 100 µM
TGI (HS 578T breast): > 100 µM
TGI (HOP-62 NSCLC): > 100 µM
TGI (PC-3 prostate): > 100 µM
TGI (HT29 colon): > 100 µM
TGI (SF-295 CNS): > 100 µM
TGI (ACHN renal): > 100 µM
TGI (NCI-H460 lung): > 100 µM
TGI (MDA-MB-231 breast): > 100 µM
TGI (COLO 205 colon): > 100 µM
TGI (T-47D breast): > 100 µM
TGI (SN12C renal): > 100 µM
TGI (IGROV1 ovarian): > 100 µM
TGI (NCI/ADR-RES ovarian): > 100 µM
TGI (LOX IMVI melanoma): > 100 µM
TGI (SF-268 CNS): > 100 µM
TGI (EKVX NSCLC): > 100 µM
TGI (SNB-75 CNS): > 100 µM
TGI (SK-MEL-5 melanoma): > 100 µM
TGI (SW-620 colon): > 100 µM
TGI (A549 NSCLC): > 100 µM

CCC1NC(=O)C(NC(=O)c2ncccc2O)C(C)OC(=O)C(c2ccccc2)NC(=O)C2CC(=O)CCN2C(=O)C(Cc2ccccc2)N(C)C(=O)C2CCCN2C1=O (stereo not drawn)
TGI (UACC-257 melanoma): > 100 µM
TGI (HOP-92 NSCLC): > 100 µM
TGI (BT-549 breast): > 100 µM
TGI (NCI-H23 lung): > 100 µM
TGI (NCI-H226 lung): > 100 µM
